Patent publication US9365576B2, “Pyrrolopyrrolidinone compounds” (Novartis AG, priority 2012, dated 2016)

Columns and labels:
Assay type in all cases: binding
[1] = target: T1, human MDM2 protein (amino acids 2-188) (Homo sapiens (Human), UniProt Q00987); assay: TR-FRET assay, p53-MDM2 Assay 1; conditions: 1.25 nM MDM2-biotinylated, 10 nM Cy5-p53 peptide
Experimental: (§1) The inhibition of p53-MDM2 and p53-MDM4 interactions is measured by time resolved fluorescence energy transfer (TR-FRET). Fluorescence energy transfer (or Foerster resonance energy transfer) describes an energy transfer between donor and acceptor fluorescent molecules. For this assay, human MDM2 protein (amino acids 2-188) and human MDM4 protein (amino acids 2-185), tagged with a C-terminal biotin moiety, are used in combination with a Europium labeled streptavidin (Perkin Elmer, Inc., Waltham, Mass., USA) serving as the donor fluorophore. The p53 derived, Cy5 labeled peptide Cy5-TFSDLWKLL (p53 aa18-26) is the energy acceptor. Upon excitation of the donor molecule at 340 nm, binding interaction between MDM2 or MDM4 and the p53 peptide induces energy transfer and enhanced response at the acceptor emission wavelength at 665 nm. Disruption of the formation of the p53-MDM2 or p53-MDM4 complex due to an inhibitor molecule binding to the p53 binding site of MDM2 or MDM4 results in increased donor emission at 620 nm. The ratiometric FRET assay readout is calculated from the raw data of the two distinct fluorescence signals measured in time resolved mode (fluorescence 665 nm/fluorescence 620 nm×1000).
(§2) After addition of 1.25 nM MDM2-biotinylated or 2.5 nM MDM4-biotinylated (internal preparations), and 0.625 nM Europium labeled streptavidin (Perkin Elmer), the solution is pre-incubated for 15 minutes at room temperature, then 10 nM Cy5-p53 peptide (internal preparation) is added before an incubation at room temperature for 15 minutes prior to reading the plate. For measurement of samples, a Victor II microplate reader (Perkin Elmer) is used with the following settings: Excitation 340 nm, Emission Donor 620 nm and Emission Acceptor 665 nm. IC50 values are calculated by curve fitting using XLfit. If not specified, reagents are purchased from Sigma-Aldrich Chemie GmBH, Buchs, Switzerland.
(§3) This assay was used to evaluate compounds displaying inhibition of p53-MDM2 interaction and p53-MDM4 interaction at IC50s of 0.005 to 50 μM (p53-MDM2 Assay 1 and p53-MDM4 Assay 1, respectively). For selected compounds displaying IC50s between […] on MDM2, a slightly modified assay is used with the following adaptations: 0.1 nM MDM2, 0.1 nM Europium labeled streptavidin and Tecan genios Pro is used as a microplate reader for the fluorescence measurements (p53-MDM2 Assay 2).

[2] = target: human MDM4 protein (amino acids 2-185) (Homo sapiens (Human), UniProt O15151); assay: TR-FRET assay, p53-MDM4 Assay 1; conditions: 2.5 nM MDM4-biotinylated, 10 nM Cy5-p53 peptide
Experimental: as §1, §2, §3

[3] = target: T1, human MDM2 protein (amino acids 2-188); assay: TR-FRET assay, p53-MDM2 Assay 2 (modified); conditions: TR-FRET; 0.1 nM MDM2, 0.1 nM Europium labeled streptavidin, Tecan genios Pro reader; read-out: IC50 p53-MDM2 Assay 2
In short: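 Biotinylated human MDM2 (aa 2–188, 1.25 nM) was preincubated 15 min at room temperature with 0.625 nM Eu-streptavidin, then 10 nM Cy5-p53 peptide (aa 18–26) added for 15 min. TR-FRET ratio 665/620 nm (excitation 340 nm) was read; IC50 came from curve fitting.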

T1 sequence (Q00987 2-188): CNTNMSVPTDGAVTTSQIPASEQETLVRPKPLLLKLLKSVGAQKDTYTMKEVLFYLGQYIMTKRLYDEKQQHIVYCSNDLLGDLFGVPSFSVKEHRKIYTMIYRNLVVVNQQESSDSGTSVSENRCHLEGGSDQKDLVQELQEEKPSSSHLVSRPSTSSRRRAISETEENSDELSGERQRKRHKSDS
Chain of human MDM4 protein (amino acids 2-185) (O15151 2-185): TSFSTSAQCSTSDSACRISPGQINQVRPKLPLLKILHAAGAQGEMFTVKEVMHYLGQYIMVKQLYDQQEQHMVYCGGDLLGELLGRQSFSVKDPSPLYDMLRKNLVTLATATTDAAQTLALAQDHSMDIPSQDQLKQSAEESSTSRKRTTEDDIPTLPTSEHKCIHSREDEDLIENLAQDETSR

Row | Compound | IC50 [1] [nM] | IC50 [2] [µM] | IC50 [3] [nM]
1 | CNC(=O)c1ccc(OC)c(-c2cc3c(n2C(C)C)[C@H](c2ccc(Cl)cc2C)N(c2cccc(Cl)c2F)C3=O)c1 [Example 7, 3-[(S)-5-(3-Chloro-2-fluoro-phenyl)-6-(4-chloro-2-methyl-phenyl)-1-isopropyl-4-oxo-1,4,5,6-tetrahydro-pyrrolo[3,4-b]pyrrol-2-yl]-4-methoxy-N-methyl-benzamide] | 0.6 | 0.507 | 0.119
2 | CNC(=O)c1ccc(OC)c(-c2cc3c(n2C(C)C)[C@H](c2ccc(Cl)cc2C)N(c2cc(Cl)ccc2C)C3=O)c1 [Example 32, 3-[(S)-5-(5-Chloro-2-methyl-phenyl)-6-(4-chloro-2-methyl-phenyl)-1-isopropyl-4-oxo-1,4,5,6-tetrahydro-pyrrolo[3,4-b]pyrrol-2-yl]-4-methoxy-N-methyl-benzamide] | 0.5 | 0.264 | 0.094
3 | CNC(=O)c1ccc(OC)c(-c2cc3c(n2C(C)C)C(c2ccc(Cl)cc2C)N(c2cccc(Cl)c2F)C3=O)c1 (centres unmarked) [Example 2, 3-[5-(3-Chloro-2-fluoro-phenyl)-6-(4-chloro-2-methyl-phenyl)-1-isopropyl-4-oxo-1,4,5,6-tetrahydro-pyrrolo[3,4-b]pyrrol-2-yl]-4-methoxy-N-methyl-benzamide] | 2.9 | 2.9 | 0.757
4 | COc1ccc(F)cc1-c1cc2c(n1C(C)C)C(c1ccc(Cl)cc1C)N(c1cccc(Cl)c1F)C2=O (centres unmarked) [Example 3, 5-(3-Chloro-2-fluoro-phenyl)-6-(4-chloro-2-methyl-phenyl)-2-(5-fluoro-2-methoxy-phenyl)-1-isopropyl-5,6-dihydro-1H-pyrrolo[3,4-b]pyrrol-4-one] | 6 | 54.2 | 
5 | COc1ccc(CO)cc1-c1cc2c(n1C(C)C)C(c1ccc(Cl)cc1)N(c1cc(Cl)ccc1C)C2=O (centres unmarked) [Example 11, 5-(5-Chloro-2-methyl-phenyl)-6-(4-chloro-phenyl)-2-(5-hydroxymethyl-2-methoxy-phenyl)-1-isopropyl-5,6-dihydro-1H-pyrrolo[3,4-b]pyrrol-4-one] |  |  | 0.113
6 | CNC(=O)c1ccc(OC)c(-c2cc3c(n2C(C)C)C(c2ccc(Cl)cc2)N(C2CCOCC2)C3=O)c1 (centres unmarked) [Example 75, 3-[6-(4-Chloro-phenyl)-1-isopropyl-4-oxo-5-(tetrahydro-pyran-4-yl)-1,4,5,6-tetrahydro-pyrrolo[3,4-b]pyrrol-2-yl]-4-methoxy-N-methyl-benzamide] |  |  | 1.09
7 | COc1ncc(CC#N)cc1-c1cc2c(n1C(C)C)C(c1ccc(C#N)cc1)N(c1cccc(Cl)c1F)C2=O (centres unmarked) [Example 88, 4-[5-(3-Chloro-2-fluoro-phenyl)-2-(5-cyanomethyl-2-methoxy-pyridin-3-yl)-1-isopropyl-4-oxo-1,4,5,6-tetrahydro-pyrrolo[3,4-b]pyrrol-6-yl]-benzonitrile] |  |  | 1.64
8 | CNc1ncc(-c2cc3c(n2C(C)C)C(c2ccc(Cl)cc2)N(c2cc(Cl)ccc2C)C3=O)c(OC)n1 (centres unmarked) [Example 26, 5-(5-Chloro-2-methyl-phenyl)-6-(4-chloro-phenyl)-1-isopropyl-2-(4-methoxy-2-methylamino-pyrimidin-5-yl)-5,6-dihydro-1H-pyrrolo[3,4-b]pyrrol-4-one] |  |  | 0.195
9 | COc1ccccc1-c1cc2c(n1C(C)C)C(c1ccc(Cl)cc1C)N(c1cccc(Cl)c1F)C2=O (centres unmarked) [Example 1, 5-(3-Chloro-2-fluoro-phenyl)-6-(4-chloro-2-methyl-phenyl)-1-isopropyl-2-(2-methoxy-phenyl)-5,6-dihydro-1H-pyrrolo[3,4-b]pyrrol-4-one] | 9.5 | 27.8 | 

Now from value to compound:

Row | IC50 [1] [nM] | IC50 [2] [µM] | IC50 [3] [nM] | Compound
10 | 27 | 2.99 | 31.9 | COc1ccccc1-c1cc2c(n1C(C)C)C(c1ccc(Cl)cc1C)N([C@H]1CC[C@H](O)CC1)C2=O (stereo partly drawn) [Example 101, 6-(4-Chloro-2-methyl-phenyl)-5-(trans-4-hydroxy-cyclohexyl)-1-isopropyl-2-(2-methoxy-phenyl)-5,6-dihydro-1H-pyrrolo[3,4-b]pyrrol-4-one]
11 | 3.3 | 9.02 | 3.7 | COc1nc(N)ncc1-c1cc2c(n1C(C)C)C(c1ccc(Cl)cc1)N(C1CCC(=O)N(C)C1)C2=O (centres unmarked) [Example 108, 2-(2-Amino-4-methoxy-pyrimidin-5-yl)-6-(4-chloro-phenyl)-1-isopropyl-5-(1-methyl-6-oxo-piperidin-3-yl)-5,6-dihydro-1H-pyrrolo[3,4-b]pyrrol-4-one]
12 | 2040 | > 100 |  | Cc1cc(N2C(=O)c3cc(-c4ccn(C)c(=O)c4)n(C4CC4)c3C2c2ccc(Cl)cc2)cn(C)c1=O (centres unmarked) [Example 242, 6-(4-Chlorophenyl)-1-cyclopropyl-5-(1,5-dimethyl-6-oxo-1,6-dihydropyridin-3-yl)-2-(1-methyl-2-oxo-1,2-dihydropyridin-4-yl)-5,6-dihydropyrrolo[3,4-b]pyrrol-4(1H)-one]
13 | 33.3 | 77.6 |  | COc1ncc(-c2cc3c(n2C2CC2)C(c2ccc(Cl)cc2)N(c2cc(C)c(=O)n(C)c2)C3=O)c(OC)n1 (centres unmarked) [Example 240, 6-(4-Chlorophenyl-1)-1-cyclopropyl-2-(2,4-dimethoxypyrimidin-5-yl)-5-(1,5-dimethyl-6-oxo-1,6-dihydropyridin-3-yl)-5,6-dihydropyrrolo[3,4-b]pyrrol-4(1H)-one]
14 | 3920 | > 100 |  | COc1ncc(-c2cc3c(n2C2CC2)C(c2ccc(Cl)cc2)N(c2cc(C)c(=O)n(C)c2)C3=O)cn1 (centres unmarked) [Example 241, 6-(4-Chlorophenyl)-1-cyclopropyl-5-(1,5-dimethyl-6-oxo-1,6-dihydropyridin-3-yl)-2-(2-methoxypyrimidin-5-yl)-5,6-dihydropyrrolo[3,4-b]pyrrol-4(1H)-one]
15 |  |  | 1.6 | COc1ncc(-c2cc3c(n2C(C)C)C(c2ccc(Cl)cc2)N(C2CCC(=O)N(C)C2)C3=O)c(OC)n1 (centres unmarked) [Example 109, 6-(4-Chloro-phenyl)-2-(2,4-dimethoxy-pyrimidin-5-yl)-1-isopropyl-5-(1-methyl-6-oxo-piperidin-3-yl)-5,6-dihydro-1H-pyrrolo[3,4-b]pyrrol-4-one]
16 |  |  | 0.198 | COc1cn(C)c(=O)cc1-c1cc2c(n1C(C)C)C(c1ccc(Cl)cc1)N(c1cc(Cl)cnc1OC)C2=O (centres unmarked) [Example 205, 5-(5-Chloro-2-methoxy-pyridin-3-yl)-6-(4-chloro-phenyl)-1-isopropyl-2-(5-methoxy-1-methyl-2-oxo-1,2-dihydro-pyridin-4-yl)-5,6-dihydro-1H-pyrrolo[3,4-b]pyrrol-4-one]
17 |  |  | 43 | COc1nc(N)ncc1-c1cc2c(n1C(C)C)[C@@H](c1ccc(C#N)cc1)N(c1cccc(Cl)c1F)C2=O [Example 155, 4-[(R)-2-(2-Amino-4-methoxy-pyrimidin-5-yl)-5-(3-chloro-2-fluoro-phenyl)-1-isopropyl-4-oxo-1,4,5,6-tetrahydro-pyrrolo[3,4-b]pyrrol-6-yl]-benzonitrile]
18 |  |  | 0.166 | CNc1ncc(-c2cc3c(n2C(C)C)C(c2ccc(Cl)cc2)N(c2c[nH]c(=O)c(Cl)c2)C3=O)c(OC)n1 (centres unmarked) [Example 152, 5-(5-Chloro-6-oxo-1,6-dihydro-pyridin-3-yl)-6-(4-chloro-phenyl)-1-isopropyl-2-(4-methoxy-2-methylamino-pyrimidin-5-yl)-5,6-dihydro-1H-pyrrolo[3,4-b]pyrrol-4-one]
19 |  |  | 293 | CNc1ncc(-c2cc3c(n2C(C)C)[C@@H](c2ccc(C#N)cc2)N(c2cc(Cl)cn(C)c2=O)C3=O)c(OC)n1 [Example 166, 4-[(R)-5-(5-Chloro-1-methyl-2-oxo-1,2-dihydro-pyridin-3-yl)-1-isopropyl-2-(4-methoxy-2-methylamino-pyrimidin-5-yl)-4-oxo-1,4,5,6-tetrahydro-pyrrolo[3,4-b]pyrrol-6-yl]-benzonitrile]
20 |  |  | 0.208 | COc1ncc(-c2cc3c(n2C(C)C)C(C)(c2ccc(Cl)cc2)N(c2cc(Cl)c(=O)n(C)c2)C3=O)c(OC)n1 (centres unmarked) [Example 117, 5-(5-Chloro-1-methyl-6-oxo-1,6-dihydro-pyridin-3-yl)-6-(4-chloro-phenyl)-2-(2,4-dimethoxy-pyrimidin-5-yl)-1-isopropyl-6-methyl-5,6-dihydro-1H-pyrrolo[3,4-b]pyrrol-4-one]
